Columns and labels:
Zmpste24^−/− mouse cells = test: Nuclear morphology of Zmpste24^−/− mouse cells in culture; type: cell-based; conditions: pravastatin (1 μM) and zoledronate (1 μM), alone or in combination
Source text: (§1) The dermal fibroblasts of a control subject (GM00038) and of patients afflicted with progeria and carriers of the mutation G608G (AG11498 and AG01972) were obtained from the Coriell Cell Repository. The HeLa cells come from the American Type Culture Collection. The cells are cultivated in DMEM (Gibco) supplemented with 10% FBS (Gibco) and 1% antibiotic-antimycotic (Gibco). The fibroblasts come from tails of 12-day-old mice (Varela and al., 2005). The concentration and the duration of treatment with the statin and the aminobiphosphonate are indicated in the legende of the figures. During the combined statin+aminobiphosphonate treatment in the presence of farnesol and/or of geranylgeraniol, 1 mM of pravastatin and 1 mM of zoledronate were added to the culture medium with increasing concentrations of farnesol and/or of geranylgeraniol. The percentage of abnormal nuclei is measured 48 h after the beginning of the treatment.
(§2) Quantification of the effect of pravastatin (1 μM) and zoledronate (1 μM), alone or in combination, on the nuclear morphology of Zmpste24^−/− mouse cells (a) and control mouse cells (b) in culture, in the presence of farnesol, geranylgeraniol or both molecules.

control fibroblasts = test: Nuclear morphology of control mouse cells in culture; type: cell-based
Source text: as §1, §2

[1] = test system: cells of progeria patients; test: Quantitative analysis of nuclear morphology of cells of progeria patients; type: cell-based, human; conditions: added to pravastatin+zoledronate, abnormal nuclei measured 48 h after beginning of treatment
Source text: as §1, with “During the combined statin+aminobiphosphonate treatment in the presence of farnesol and/or of geranylgeraniol, 1 mM of pravastatin and 1 mM of zoledronate were added to the culture medium with increasing concentrations of farnesol and/or of geranylgeraniol.” left out, “treatment. […]” for “treatment.”
The dilution of the primary antibodies is 1/100 for the goat polyclonal anti-prelamin A antibody (Sc-6214, Santa Cruz Biotechnologies), 1/40 for the anti-lamin A/C antibody (4A7 provided by G. Morris), 1/200 for the Rabbit anti-calreticulin antibody (Stressgen) and 1/100 for the B1 anti-lamin antibody (Abcam). […] Digital images are recorded with a Leica DMR microscope equipped with a CoolSnap camera or with a Leica TCS SP5 confocal microscope. […] More than 100 nuclei were analysed in the control fibroblasts for each of the treatments. The number of nuclei of cells of patients afflicted with progeria analysed is 250 (passage 8), 198 (passage 13) and 150 (passage 20). […]

Zmpste24^−/− mice = test: Progeroid phenotype and lifespan of Zmpste24^−/− mice (Example 7); type: in vivo, mouse; conditions: daily treatment with one drug alone
Protocol: All of the experiments on mice are governed by the rules set down by the Animal Experiment Committee of the University of Oviedo (Spain). The pravastatin (100 mg/kg/day) and the zoledronate (100 mg/kg/day) diluted in PBS are administered to the mice every day.

prelamin A [2] = test: Immunohistochemistry: prelamin A level in healthy cells; type: cell-based, human; conditions: Pravastatin 100 μM for 12 hours, Zoledronate 20 μM for 6 hours; in association or alone
Protocol: (§3) A cell culture is trypsinized, and the cells are counted on a Neubauer cytometer.
(§4) Labtech culture wells (Nunc, ref. 177399) are seeded in an amount of 5×10^4 cells per well.
(§5) The complete culture medium is supplemented by the treatment(s) (statin, NBP, both), and the cells are cultivated for the ad hoc time.
(§6) The cells are fixed in a paraformaldehyde 4% solution (in PBS) for 10 minutes at room temperature.
(§7) […], the cells are incubated for 5 minutes at room temperature in a humidity chamber in 50 μl of permeabilization solution:
(§8) The primary antibody is diluted to 1/100 in 50 μl of incubation solution and placed in contact with the cells for 1 hour at room temperature in a humidity chamber.
(§9) The primary antibodies used are of two types: • Mouse anti-lamin A/C (N-terminal side), clone 4A7, donated by G. Morris (Oswestry, UK) • Goat anti-prelamin A (C-terminal end 15 aa), product SC6214, Santa Cruz Biotchnology, Inc.
(§10) The incubation with the secondary antibody takes place for 1 hour in […] of incubation solution at room temperature in a humidity chamber. […]
(§11) The cells are immersed in one drop of VectaShield (Vector), covered with an object-cover slide and observed under a fluorescence microscope (Leica DMR, Leica Microsystems), equipped with a coolSNAP camera (Princeton). […]

healthy cells = test: Immunohistochemistry: toxicity / deformed nuclei on healthy cells; type: cell-based, human; conditions: Pravastatin 100 μM for 12 hours, Zoledronate 20 μM for 6 hours; in association or alone
Protocol: as §3, §4, §5, §6, §7, §8, §9, §10, §11

progerin = test: Mass spectrometry (MALDI-ToF) of nuclear envelope proteins, cells of progeria patients; type: cell-based, human; conditions: FTI 2.5 μM
Source text: (§12) The fibroblasts of control and Zmpste24^−/− mice as well as the cells lymphoblastoids of progeria patients have been homogenised, the nuclei isolated via ultracentrifugation and the nuclear proteins obtained as described in Blobel and Potter, V. R. Nuclei from rat liver: isolation method that combines purity with high yield, Science 154, 1662-1665, 1966. The proteins of the nuclear lamina were separated via SDS-PAGE electrophoresis, and the strips containing the lamin A, the prelamin A and the progerin were excised. The fragments of the gel were washed twice with […] of a ammonium bicarbonate/acetonitrile mixture (70/30, 25 mM), dried (15 min, 90° C.) and digested (1 h, 60° C.) with trypsin (12 ng/ml, Promega) in the ammonium bicarbonate 25 mM. […] The data collected using 200 laser firings produce spectra analysed with the Data Explorer programme (version 4.0.0.0, Applied Biosystems).
FIG. 11 legend: mass spectrometry analysis of the proteins extracted from the nuclear envelop of the untreated cells (a), of the cells of the progeria patients treated with FTI (2.5 μM, b) or treated with the mixture of pravastatin+zoledronate (1 μM apiece, c). […] Each peak corresponds to the tryptic peptide of the progerin and is marked with the measured monoisotopic mass in experiment and with the theoretical mass (between parentheses). […]

prelamin A [3] = test: Mass spectrometry (MALDI-ToF) of nuclear envelope proteins, Zmpste24^−/− mouse fibroblasts; type: cell-based; conditions: FTI-treated Zmpste24^−/− mouse cells
Source text: as §12
FIG. 12 legend: a mass spectrometry analysis of the proteins extracted from the nuclear envelop of the untreated fibroblasts (a) or treated with a mixture of pravastatin+zoledronate (1 μM apiece, b) stemming from Zmpste24^−/− mice. […] Each peak corresponds to a tryptic peptide of the progerin and is marked with a monoisotopic mass measured the experiment and with the theoritical mass (in parentheses). […]

Row | SMILES | effect on the nuclear morphology improvement given by the pravastatin+zoledronate treatment (Zmpste24^−/− mouse cells) | effect on nuclear morphology of control fibroblasts (control fibroblasts) | effect on the nuclear morphology improvement given by the pravastatin+zoledronate treatment [1] | prelamin A level produced in healthy cells (prelamin A [2]) [%] | other results
1 | CC(C)=CCC/C(C)=C/CC/C(C)=C/CC/C(C)=C/CO [geranylgeraniol] | nullify the effect of the pravastatin+zoledronate treatment | Neither farnesol nor geranylgeraniol have any effect | blocks the effect of the treatment |  | 
2 | O=P(O)(O)C(O)(Cn1ccnc1)P(=O)(O)O [zoledronate, (1-hydroxy-2-imidazol-1-yl-1-phosphono-ethyl) phosphonic acid] |  |  |  | 15 | lifespan of Zmpste24^−/− mice, drug in isolation (Zmpste24^−/− mice): neither of the drugs in isolation, pravastatin or zoledronate, increases the lifespan
3 | CC[C@H](C)C(=O)O[C@H]1C[C@H](O)C=C2C=C[C@H](C)[C@H](CC[C@@H](O)C[C@@H](O)CC(=O)O)[C@H]21 [pravastatin] |  |  |  | 25 | rate of deformed nuclei (sign of toxicity on healthy cells) (healthy cells): around 12%
4 | CC(C)=CCCC(C)=CCCC(C)=CCO [farnesol] | nullify the effect of the pravastatin+zoledronate treatment | Neither farnesol nor geranylgeraniol have any effect | nullifies the effect of the pravastatin+zoledronate treatment |  | 
5 | COC(=O)[C@H](CCSC)NC(=O)c1ccc(NC[C@@H](N)CS)cc1-c1ccccc1 [FTI-277] |  |  |  |  | farnesylated and carboxymethylated progerin peak (progerin): considerable reduced; geranylgeranylated progerin peptides (progerin): appears geranylgeranylated and phosphoryl; geranyl-geranylated prelamin A peptide (prelamin A [3]): detected a peptide which mass is compatible with a geranyl-geranylated fragment of the prelamine A; quantity of farnesylated prelamin A (prelamin A [3]): reduction in the quantity of farnesyled prelamine A

— patent US9545412B2, “Composition and methods used during anti-HIV treatment” (UNIVERSITE D'AIX-MARSEILLE, priority 2008, dated 2017)
